{"source": "paper PMC3321104", "about": "(Bioorganic & medicinal chemistry letters, 2012)", "key": {"[1]": {"system": "chloroquine-resistant P. falciparum strain W2"}, "Vero cell": {"system": "Vero cell", "assay": "Vero cell toxicity", "type": "cell-based", "details": "concentrations up to 25 μM"}, "[2]": {"system": "chloroquine-resistant P. falciparum strain W2", "assay": "microbe, parasite or virus in culture", "details": "Plasmodium falciparum"}}, "note": "Where two headings read alike, the source gives them in different places.", "data": [{"smiles": "CC1=C(CCCCC[P+](c2ccccc2)(c2ccccc2)c2ccccc2)C(=O)c2ccccc2C1=O", "note": "[9n]", "values": [{"measurement": "fold greater activity than control 4a", "setting": "[1]", "value": "3–7 fold"}]}, {"smiles": "CC1=C(CCCC[P+](c2ccccc2)(c2ccccc2)c2ccccc2)C(=O)c2ccccc2C1=O", "note": "[9o, (4-(3-methyl-1,4-dioxo-1,4-dihydronaphthalen-2-yl)butyl)triphenyl-phosphonium methanesulfonate]", "values": [{"measurement": "Vero cell toxicity (in words)", "setting": "Vero cell", "value": "not displaying toxicity at 25 μM"}]}, {"smiles": "O=C(Cn1ccnc1[N+](=O)[O-])NCc1ccccc1", "note": "[BNZ, benznidazole]", "values": [{"measurement": "Vero cell toxicity (in words)", "setting": "Vero cell", "value": "non-toxic"}]}, {"smiles": "CCN(CC)CCCC(C)Nc1ccnc2cc(Cl)ccc12", "note": "(centres unmarked) [CQ, chloroquine]", "values": [{"measurement": "IC50", "setting": "[2]; W2, read-out: IC50 (nM), P. falciparum growth", "value": "66.9 ± 2.3", "unit": "nM"}, {"measurement": "IC50", "setting": "[2]; W2, read-out: IC50, P. falciparum W2", "value": 66.9, "unit": "nM"}]}]}
